{
  "source": "paper PMC9250534",
  "about": "“Synthesis and direct assay of large macrocycle diversities by combinatorial late-stage modification at picomole scale” (Nature Communications, 2022)",
  "data": [
    {"target": "MDM2 (Homo sapiens, UniProt Q00987)", "sequence (Q00987 whole entry)": "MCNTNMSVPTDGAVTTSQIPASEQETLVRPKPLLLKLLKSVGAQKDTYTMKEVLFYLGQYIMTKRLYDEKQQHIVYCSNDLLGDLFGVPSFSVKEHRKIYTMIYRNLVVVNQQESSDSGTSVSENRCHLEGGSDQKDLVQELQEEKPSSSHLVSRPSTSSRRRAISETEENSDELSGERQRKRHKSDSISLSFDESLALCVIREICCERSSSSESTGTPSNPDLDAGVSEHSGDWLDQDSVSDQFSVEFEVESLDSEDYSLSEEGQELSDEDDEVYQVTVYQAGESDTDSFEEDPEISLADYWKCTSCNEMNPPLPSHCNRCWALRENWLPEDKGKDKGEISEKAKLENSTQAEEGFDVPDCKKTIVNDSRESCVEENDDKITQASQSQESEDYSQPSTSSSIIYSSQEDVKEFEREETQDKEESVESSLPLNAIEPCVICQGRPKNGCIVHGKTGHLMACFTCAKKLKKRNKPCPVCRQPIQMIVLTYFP", "test": "MDM2 binding screen of Libraries 3 and 4: displacement of fluorescent probe F-M8 at 750 nM macrocycle", "conditions": "Panel b, Library 3: 63 scaffolds combinatorially acylated with 15 carboxylic acids at 30 picomole scale; displacement of fluorescent peptide probe; macrocycle 750 nM", "method_in_brief": "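Competition with nutlin-3a was run using the fluorescein conjugate. Library members came from scaffolds reacted 6 h at room temperature with carboxylic acids (20 equiv.), HBTU and DABCO in DMSO. Quenching was overnight in Tris-Cl pH 7.4 buffer with 0.01% Tween20.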", "values": [
      {"smiles": "O=C(/C=C/c1ccc2ccccc2c1)NC[C@H]1NC(=O)[C@H]2CCCN(C2)C(=O)CCSSCCNC(=O)[C@H](Cc2cccc3ccccc23)NC1=O", "note": "[X-Nip-D-Dap-1-NaI + Acid 112]", "fraction of fluorescent probe displaced": 0.021},
      {"smiles": "CC(Oc1cccc(Cl)c1)C(=O)NC[C@H]1NC(=O)[C@H]2CCCN(C2)C(=O)CCSSCCNC(=O)[C@H](Cc2cccc3ccccc23)NC1=O", "note": "(stereo partly drawn) [X-Nip-D-Dap-1-NaI + Acid 113]", "fraction of fluorescent probe displaced": 0.00133},
      {"smiles": "O=C(CCS(=O)(=O)c1ccccc1)NC[C@H]1NC(=O)[C@H]2CCCN(C2)C(=O)CCSSCCNC(=O)[C@H](Cc2cccc3ccccc23)NC1=O", "note": "[X-Nip-D-Dap-1-NaI + Acid 114]", "fraction of fluorescent probe displaced": -0.00533},
      {"smiles": "O=C(NC[C@H]1NC(=O)[C@H]2CCCN(C2)C(=O)CCSSCCNC(=O)[C@H](Cc2cccc3ccccc23)NC1=O)C1COc2ccccc2O1", "note": "(stereo partly drawn) [X-Nip-D-Dap-1-NaI + Acid 115]", "fraction of fluorescent probe displaced": 0.021},
      {"smiles": "O=C(/C=C/c1ccc(Cl)cc1)NC[C@H]1NC(=O)[C@H]2CCCN(C2)C(=O)CCSSCCNC(=O)[C@H](Cc2ccc3ccccc3c2)NC1=O", "note": "[X-Nip-D-Dap-2-Nal + Acid 108]", "fraction of fluorescent probe displaced": 0.021},
      {"smiles": "O=C(/C=C/c1ccc(OCc2ccccc2)cc1)NC[C@H]1NC(=O)[C@H]2CCCN(C2)C(=O)CCSSCCNC(=O)[C@H](Cc2ccc3ccccc3c2)NC1=O", "note": "[X-Nip-D-Dap-2-Nal + Acid 110]", "fraction of fluorescent probe displaced": 0.008},
      {"smiles": "O=C(NC[C@H]1NC(=O)[C@H]2CCCN(C2)C(=O)CCSSCCNC(=O)[C@H](Cc2ccc3ccccc3c2)NC1=O)c1cccc(Oc2ccccc2)c1", "note": "[X-Nip-D-Dap-2-Nal + Acid 111]", "fraction of fluorescent probe displaced": 0.00133},
      {"smiles": "O=C(/C=C/c1ccc2ccccc2c1)NC[C@H]1NC(=O)[C@H]2CCCN(C2)C(=O)CCSSCCNC(=O)[C@H](Cc2ccc3ccccc3c2)NC1=O", "note": "[X-Nip-D-Dap-2-Nal + Acid 112]", "fraction of fluorescent probe displaced": 0.008},
      {"smiles": "O=C(CCS(=O)(=O)c1ccccc1)NC[C@H]1NC(=O)[C@H]2CCCN(C2)C(=O)CCSSCCNC(=O)[C@H](Cc2ccc3ccccc3c2)NC1=O", "note": "[X-Nip-D-Dap-2-Nal + Acid 114]", "fraction of fluorescent probe displaced": 0.048},
      {"smiles": "O=C(NC[C@H]1NC(=O)[C@H]2CCCN(C2)C(=O)CCSSCCNC(=O)[C@H](Cc2c[nH]c3cc(Cl)ccc23)NC1=O)c1ccc(Cl)cc1", "note": "[X-Nip-D-Dap-Cl-Trp + Acid 25]", "fraction of fluorescent probe displaced": 0.041},
      {"smiles": "O=C(/C=C/c1ccncc1)NC[C@H]1NC(=O)[C@H]2CCCN(C2)C(=O)CCSSCCNC(=O)[C@H](Cc2c[nH]c3cc(Cl)ccc23)NC1=O", "note": "[X-Nip-D-Dap-Cl-Trp + Acid 106]", "fraction of fluorescent probe displaced": 0.018},
      {"smiles": "O=C(NC[C@H]1NC(=O)[C@H]2CCCN(C2)C(=O)CCSSCCNC(=O)[C@H](Cc2c[nH]c3cc(Cl)ccc23)NC1=O)c1ccc2ccccc2c1", "note": "[X-Nip-D-Dap-Cl-Trp + Acid 107]", "fraction of fluorescent probe displaced": 0.024},
      {"smiles": "O=C(/C=C/c1ccc(Cl)cc1)NC[C@H]1NC(=O)[C@H]2CCCN(C2)C(=O)CCSSCCNC(=O)[C@H](Cc2c[nH]c3cc(Cl)ccc23)NC1=O", "note": "[X-Nip-D-Dap-Cl-Trp + Acid 108]", "fraction of fluorescent probe displaced": 0.00133},
      {"smiles": "O=C(/C=C/c1ccc(OCc2ccccc2)cc1)NC[C@H]1NC(=O)[C@H]2CCCN(C2)C(=O)CCSSCCNC(=O)[C@H](Cc2c[nH]c3cc(Cl)ccc23)NC1=O", "note": "[X-Nip-D-Dap-Cl-Trp + Acid 110]", "fraction of fluorescent probe displaced": 0.008},
      {"smiles": "O=C(/C=C/c1ccc2ccccc2c1)NC[C@H]1NC(=O)[C@H]2CCCN(C2)C(=O)CCSSCCNC(=O)[C@H](Cc2c[nH]c3cc(Cl)ccc23)NC1=O", "note": "[X-Nip-D-Dap-Cl-Trp + Acid 112]", "fraction of fluorescent probe displaced": -0.00533},
      {"smiles": "CC(Oc1cccc(Cl)c1)C(=O)NC[C@H]1NC(=O)[C@H]2CCCN(C2)C(=O)CCSSCCNC(=O)[C@H](Cc2c[nH]c3cc(Cl)ccc23)NC1=O", "note": "(stereo partly drawn) [X-Nip-D-Dap-Cl-Trp + Acid 113]", "fraction of fluorescent probe displaced": -0.00533},
      {"smiles": "O=C(CCS(=O)(=O)c1ccccc1)NC[C@H]1NC(=O)[C@H]2CCCN(C2)C(=O)CCSSCCNC(=O)[C@H](Cc2c[nH]c3cc(Cl)ccc23)NC1=O", "note": "[X-Nip-D-Dap-Cl-Trp + Acid 114]", "fraction of fluorescent probe displaced": 0.015},
      {"smiles": "O=C(NC[C@H]1NC(=O)[C@H]2CCCN(C2)C(=O)CCSSCCNC(=O)[C@H](Cc2c[nH]c3cc(Cl)ccc23)NC1=O)C1COc2ccccc2O1", "note": "(stereo partly drawn) [X-Nip-D-Dap-Cl-Trp + Acid 115]", "fraction of fluorescent probe displaced": -0.012},
      {"smiles": "O=C(NC[C@H]1NC(=O)[C@H]2CCCN(C2)C(=O)CCSSCCNC(=O)[C@@H](Cc2c[nH]c3ccccc23)NC1=O)c1ccc(Cl)s1", "note": "[X-Nip-D-Dap-D-Trp + Acid 14]", "fraction of fluorescent probe displaced": -0.00533},
      {"smiles": "O=C(NC[C@H]1NC(=O)[C@H]2CCCN(C2)C(=O)CCSSCCNC(=O)[C@@H](Cc2c[nH]c3ccccc23)NC1=O)c1ccc(Cl)cc1", "note": "[X-Nip-D-Dap-D-Trp + Acid 25]", "fraction of fluorescent probe displaced": 0.00133},
      {"smiles": "O=C(NC[C@H]1NC(=O)[C@H]2CCCN(C2)C(=O)CCSSCCNC(=O)[C@@H](Cc2c[nH]c3ccccc23)NC1=O)c1ccc2ccccc2c1", "note": "[X-Nip-D-Dap-D-Trp + Acid 107]", "fraction of fluorescent probe displaced": 0.050},
      {"smiles": "O=C(/C=C/c1ccc(OCc2ccccc2)cc1)NC[C@H]1NC(=O)[C@H]2CCCN(C2)C(=O)CCSSCCNC(=O)[C@@H](Cc2c[nH]c3ccccc23)NC1=O", "note": "[X-Nip-D-Dap-D-Trp + Acid 110]", "fraction of fluorescent probe displaced": -0.012},
      {"smiles": "O=C(/C=C/c1ccc2ccccc2c1)NC[C@H]1NC(=O)[C@H]2CCCN(C2)C(=O)CCSSCCNC(=O)[C@@H](Cc2c[nH]c3ccccc23)NC1=O", "note": "[X-Nip-D-Dap-D-Trp + Acid 112]", "fraction of fluorescent probe displaced": 0.075},
      {"smiles": "O=C(CCS(=O)(=O)c1ccccc1)NC[C@H]1NC(=O)[C@H]2CCCN(C2)C(=O)CCSSCCNC(=O)[C@@H](Cc2c[nH]c3ccccc23)NC1=O", "note": "[X-Nip-D-Dap-D-Trp + Acid 114]", "fraction of fluorescent probe displaced": 0.021},
      {"smiles": "Cn1cc(C[C@@H]2NC(=O)[C@@H](CNC(=O)c3ccc(Cl)s3)NC(=O)[C@H]3CCCN(C3)C(=O)CCSSCCNC2=O)c2ccccc21", "note": "[X-Nip-D-Dap-Me-Trp + Acid 14]", "fraction of fluorescent probe displaced": 0.008},
      {"smiles": "Cn1cc(C[C@@H]2NC(=O)[C@@H](CNC(=O)c3ccc(Cl)cc3)NC(=O)[C@H]3CCCN(C3)C(=O)CCSSCCNC2=O)c2ccccc21", "note": "[X-Nip-D-Dap-Me-Trp + Acid 25]", "fraction of fluorescent probe displaced": -0.00533},
      {"smiles": "Cn1cc(C[C@@H]2NC(=O)[C@@H](CNC(=O)/C=C/c3ccc(Cl)cc3)NC(=O)[C@H]3CCCN(C3)C(=O)CCSSCCNC2=O)c2ccccc21", "note": "[X-Nip-D-Dap-Me-Trp + Acid 108]", "fraction of fluorescent probe displaced": 0.015},
      {"smiles": "Cn1cc(C[C@@H]2NC(=O)[C@@H](CNC(=O)/C=C/c3ccc(OCc4ccccc4)cc3)NC(=O)[C@H]3CCCN(C3)C(=O)CCSSCCNC2=O)c2ccccc21", "note": "[X-Nip-D-Dap-Me-Trp + Acid 110]", "fraction of fluorescent probe displaced": 0.008},
      {"smiles": "Cn1cc(C[C@@H]2NC(=O)[C@@H](CNC(=O)c3cccc(Oc4ccccc4)c3)NC(=O)[C@H]3CCCN(C3)C(=O)CCSSCCNC2=O)c2ccccc21", "note": "[X-Nip-D-Dap-Me-Trp + Acid 111]", "fraction of fluorescent probe displaced": 0.048},
      {"smiles": "Cn1cc(C[C@@H]2NC(=O)[C@@H](CNC(=O)/C=C/c3ccc4ccccc4c3)NC(=O)[C@H]3CCCN(C3)C(=O)CCSSCCNC2=O)c2ccccc21", "note": "[X-Nip-D-Dap-Me-Trp + Acid 112]", "fraction of fluorescent probe displaced": 0.021},
      {"smiles": "Cn1cc(C[C@@H]2NC(=O)[C@@H](CNC(=O)CCS(=O)(=O)c3ccccc3)NC(=O)[C@H]3CCCN(C3)C(=O)CCSSCCNC2=O)c2ccccc21", "note": "[X-Nip-D-Dap-Me-Trp + Acid 114]", "fraction of fluorescent probe displaced": 0.015},
      {"smiles": "Cn1cc(C[C@@H]2NC(=O)[C@@H](CNC(=O)C3COc4ccccc4O3)NC(=O)[C@H]3CCCN(C3)C(=O)CCSSCCNC2=O)c2ccccc21", "note": "(stereo partly drawn) [X-Nip-D-Dap-Me-Trp + Acid 115]", "fraction of fluorescent probe displaced": -0.012},
      {"smiles": "CN1C(=O)[C@@H](CNC(=O)c2ccc(Cl)s2)NC(=O)[C@H]2CCCN(C2)C(=O)CCSSCCNC(=O)[C@@H]1Cc1c[nH]c2ccccc12", "note": "[X-Nip-D-Dap-NMe-Trp + Acid 14]", "fraction of fluorescent probe displaced": 0.00133},
      {"smiles": "CN1C(=O)[C@@H](CNC(=O)c2ccc(Cl)cc2)NC(=O)[C@H]2CCCN(C2)C(=O)CCSSCCNC(=O)[C@@H]1Cc1c[nH]c2ccccc12", "note": "[X-Nip-D-Dap-NMe-Trp + Acid 25]", "fraction of fluorescent probe displaced": 0.00133},
      {"smiles": "CN1C(=O)[C@@H](CNC(=O)/C=C/c2ccncc2)NC(=O)[C@H]2CCCN(C2)C(=O)CCSSCCNC(=O)[C@@H]1Cc1c[nH]c2ccccc12", "note": "[X-Nip-D-Dap-NMe-Trp + Acid 106]", "fraction of fluorescent probe displaced": -0.00844},
      {"smiles": "CN1C(=O)[C@@H](CNC(=O)c2ccc3ccccc3c2)NC(=O)[C@H]2CCCN(C2)C(=O)CCSSCCNC(=O)[C@@H]1Cc1c[nH]c2ccccc12", "note": "[X-Nip-D-Dap-NMe-Trp + Acid 107]", "fraction of fluorescent probe displaced": 0.031},
      {"smiles": "CN1C(=O)[C@@H](CNC(=O)/C=C/c2ccc(OCc3ccccc3)cc2)NC(=O)[C@H]2CCCN(C2)C(=O)CCSSCCNC(=O)[C@@H]1Cc1c[nH]c2ccccc12", "note": "[X-Nip-D-Dap-NMe-Trp + Acid 110]", "fraction of fluorescent probe displaced": -0.00533},
      {"smiles": "CN1C(=O)[C@@H](CNC(=O)CCS(=O)(=O)c2ccccc2)NC(=O)[C@H]2CCCN(C2)C(=O)CCSSCCNC(=O)[C@@H]1Cc1c[nH]c2ccccc12", "note": "[X-Nip-D-Dap-NMe-Trp + Acid 114]", "fraction of fluorescent probe displaced": 0.008},
      {"smiles": "O=C(NC[C@H]1NC(=O)[C@H]2CCCN(C2)C(=O)CCSSCCNC(=O)[C@H](Cc2c[nH]c3ccccc23)NC1=O)c1ccc(Cl)cc1", "note": "[X-Nip-D-Dap-Trp + Acid 25]", "fraction of fluorescent probe displaced": -0.00533},
      {"smiles": "O=C(/C=C/c1ccncc1)NC[C@H]1NC(=O)[C@H]2CCCN(C2)C(=O)CCSSCCNC(=O)[C@H](Cc2c[nH]c3ccccc23)NC1=O", "note": "[X-Nip-D-Dap-Trp + Acid 106]", "fraction of fluorescent probe displaced": -0.002},
      {"smiles": "O=C(NC[C@H]1NC(=O)[C@H]2CCCN(C2)C(=O)CCSSCCNC(=O)[C@H](Cc2c[nH]c3ccccc23)NC1=O)c1cccc(Oc2ccccc2)c1", "note": "[X-Nip-D-Dap-Trp + Acid 111]", "fraction of fluorescent probe displaced": 0.008},
      {"smiles": "O=C(/C=C/c1ccc2ccccc2c1)NC[C@H]1NC(=O)[C@H]2CCCN(C2)C(=O)CCSSCCNC(=O)[C@H](Cc2c[nH]c3ccccc23)NC1=O", "note": "[X-Nip-D-Dap-Trp + Acid 112]", "fraction of fluorescent probe displaced": -0.012}
    ]}
  ]
}
